The results in this text go back to article PMC11625190 (Synthetic and Systems Biotechnology, 2024).

This assay deals with ChAER1. Kind of assay: HPLC quantification of 4-hydroxydihydrocinnamaldehyde formation, crude enzyme. The assay is classed as biochemical, Cephalotaxus harringtonia. Particulars: 1 mM NADPH, 50 mM Tris-HCl pH 7.5, 30 °C, 1 h.

What is called Km is the substrate concentration at which the rate is half of its maximum. For the compound `O=C/C=C/c1ccc(O)cc1` [p-coumaraldehyde], the Michaelis-Menten constant (Km) was found to be 467 µM.
